Reference: patent US9512113B2, “N-(tetrazol-5-yl)- and N-(triazol-5-yl)arylcarboxylic thioamides and use thereof as herbicides” (BAYER CROPSCIENCE AG, priority 2012, dated 2016)

Tests used:
Format in all cases: in vivo
Pharbitis purpureum [1] = test: Post-emergence herbicidal action against harmful plants; settings: Table G, 5 g/ha
Experimental: (§1) Seeds of monocotyledonous and dicotyledonous weed and crop plants are placed in sandy loam in wood-fiber pots, covered with soil and cultivated in a greenhouse under good growth conditions. 2 to 3 weeks after sowing, the test plants are treated at the one-leaf stage. The compounds according to the invention, formulated in the form of wettable powders (WP) or as emulsion concentrates (EC), are then sprayed as aqueous suspension or emulsion at a water application rate of 600 to 800 I/ha (converted) with the addition of 0.2% of wetting agent onto the green parts of the plants. After the test plants have been left to stand in the greenhouse under optimal growth conditions for about 3 weeks, the action of the preparations is assessed visually in comparison to untreated controls (herbicidal action in percent (%): 100% action=the plants have died, 0% action=like control plants). Here, for example, the compounds Nos 1-8 and 1-83, at an application rate of 80 g/ha, show an activity of at least 80% against Alopecurus myosuroides, Avena fatua, Cyperus serotinus, Echinochloa crus galli, Lolium multiflorum, Setaria viridis, Abutilon theophrasti, Amaranthus retroflexus, Matricaria inodora, Pharbitis purpureum, Polygonum convolvulus, Stellaria media, Viola tricolor and Veronica persica.
(§2) These comparative experiments were carried out under the conditions mentioned above by the pre-emergence method and the post-emergence method. In the tables below, the top line in each case states the compound according to the invention, and the bottom line states the compound from WO 2012/028579 A1.

Polygonum convolvulus [2] = test: as above
Experimental: as §1, §2

Oryza sativa (rice) [3] = test: Post-emergence action, damage to crop plants; settings: Table G, 5 g/ha
Experimental: as §1, §2

[4] = tested on: Triticum aestivum (wheat); test: Post-emergence action, damage to crop plants
Experimental: as §1, §2

Lolium multiflorum = test: Post-emergence herbicidal action against harmful plants; settings: 80 g/ha
Experimental: as §1, §2

Alopecurus myosuroides = test: as above; settings: Table I, 80 g/ha
Experimental: as §1, §2

Zea mays (corn) [5] = test: Post-emergence action, damage to crop plants; settings: 80 g/ha
Experimental: as §1, §2

Avena fatua [6] = test: Post-emergence herbicidal action against harmful plants; settings: Table K, 80 g/ha
Experimental: as §1, §2

Echinochloa crus galli [7] = test: as above; settings: Table H, 5 g/ha
Experimental: as §1, §2

Amaranthus retroflexus [8] = test: as above; settings: Table H, 5 g/ha
Experimental: as §1, §2

Setaria viridis = test: as above; settings: Table H, 5 g/ha
Experimental: as §1, §2

Pharbitis purpureum [9] = test: Pre-emergence herbicidal action against harmful plants
Excerpt: (§3) Seeds of monocotyledonous and dicotyledonous weed plants and crop plants are placed in wood-fiber pots in sandy loam and covered with soil. The compounds according to the invention, formulated in the form of wettable powders (WP) or as emulsion concentrates (EC), are then applied as aqueous suspension or emulsion at a water application rate of 600 to 800 I/ha (converted) with the addition of 0.2% of wetting agent to the surface of the covering soil. After the treatment, the pots are placed in a greenhouse and kept under good growth conditions for the test plants. The damage to the test plants is assessed visually after a test period of 3 weeks by comparison with untreated controls (herbicidal activity in percent (%): 100% action=the plants have died, 0% action=like control plants). Here, for example, the compounds Nos 1-8, 1-26 and 4-7, at an application rate of 80 g/ha, show an activity of at least 80% against Alopecurus myosuroides, Avena fatua, Cyperus serotinus, Echinochloa crus galli, Lolium multiflorum, Setaria viridis, Abutilon theophrasti, Amaranthus retroflexus, Matricaria inodora, Pharbitis purpureum, Stellaria media, Viola tricolor and Veronica persica.
as §2

Polygonum convolvulus [10] = test: as above
Excerpt: as §3, §2

[11] = tested on: Triticum aestivum (wheat); test: Pre-emergence action, damage to crop plants; settings: Table D, 320 g/ha
Excerpt: as §3, §2

Abutilon theophrasti = test: Pre-emergence herbicidal action against harmful plants
Excerpt: as §3, §2

[12] = tested on: Brassica napus (oilseed rape); test: Pre-emergence action, damage to crop plants
Excerpt: as §3, §2

Echinochloa crus galli [13] = test: Pre-emergence herbicidal action against harmful plants; settings: 20 g/ha
Excerpt: as §3, §2

Oryza sativa (rice) [14] = test: Pre-emergence action, damage to crop plants; settings: 20 g/ha
Excerpt: as §3, §2

Amaranthus retroflexus [15] = test: Pre-emergence herbicidal action against harmful plants; settings: Table E, 320 g/ha
Excerpt: as §3, §2

Avena fatua [16] = test: as above; settings: Table C, 320 g/ha
Excerpt: as §3, §2

Zea mays (corn) [17] = test: Pre-emergence action, damage to crop plants; settings: Table C, 320 g/ha
Excerpt: as §3, §2

Cyperus serotinus = test: Pre-emergence herbicidal action against harmful plants; settings: Table B, 20 g/ha
Excerpt: as §3, §2

SMILES: CCOc1c(S(C)(=O)=O)ccc(C(=S)Nc2nnnn2C)c1Cl
- Herbicidal efficacy against PHBPU (Pharbitis purpureum [1]): 80%
- Herbicidal efficacy against POLCO (Polygonum convolvulus [2]; Table G, 5 g/ha): 60%
- Damage to crop plants ORYSA (Oryza sativa (rice) [3]): 10%
- Damage to crop plants TRZAS ([4]; Table G, 5 g/ha): 0%

SMILES: CCCn1nnnc1NC(=O)c1ccc(C(F)(F)F)c(S(C)(=O)=O)c1C [drawing 25]
- Herbicidal efficacy against LOLMU (Lolium multiflorum; Table I): 0%
- Herbicidal efficacy against ALOMY (Alopecurus myosuroides): 30%
- Damage to crop plants ZEAMX (Zea mays (corn) [5]; Table I): 20%

SMILES: Cc1c(C(=S)Nc2nnnn2C)ccc(C(F)(F)F)c1S(C)(=O)=O [drawing 28]
- Herbicidal efficacy against LOLMU (Lolium multiflorum; Table K): 90%
- Herbicidal efficacy against AVEFA (Avena fatua [6]): 90%
- Damage to crop plants ZEAMX (Zea mays (corn) [5]; Table K): 50%

SMILES: Cc1c(C(=O)Nc2nnnn2C)ccc(S(C)(=O)=O)c1Cl [drawing 23]
- Herbicidal efficacy against ECHCG (Echinochloa crus galli [7]): 10%
- Herbicidal efficacy against AMARE (Amaranthus retroflexus [8]): 20%
- Herbicidal efficacy against SETVI (Setaria viridis): 0%

SMILES: Cc1nc(C(F)(F)F)ccc1C(=S)Nc1nnnn1C
- Herbicidal efficacy against PHBPU (Pharbitis purpureum [9]; Table D, 320 g/ha): 80%
- Herbicidal efficacy against POLCO (Polygonum convolvulus [10]; Table D, 320 g/ha): 80%
- Damage to crop plants TRZAS [11]: 0%

SMILES: CCOc1c(S(C)(=O)=O)ccc(C(=O)Nc2nnnn2C)c1Cl
- Herbicidal efficacy against PHBPU (Pharbitis purpureum [1]): 20%
- Herbicidal efficacy against POLCO (Polygonum convolvulus [2]; Table G, 5 g/ha): 40%
- Damage to crop plants ORYSA (Oryza sativa (rice) [3]): 40%
- Damage to crop plants TRZAS ([4]; Table G, 5 g/ha): 30%

SMILES: Cc1c(C(=S)Nc2nnnn2C)ccc(S(C)(=O)=O)c1Cl [drawing 8]
- Herbicidal efficacy against PHBPU (Pharbitis purpureum [9]; Table A, 20 g/ha): 20%
- Herbicidal efficacy against ABUTH (Abutilon theophrasti; Table A, 20 g/ha): 90%
- Damage to crop plants BRSNW ([12]; Table A, 20 g/ha): 0%

SMILES: Cc1c(C(=O)Nc2nnnn2C)ccc(C(F)(F)F)c1S(C)(=O)=O [drawing 19]
- Herbicidal efficacy against POLCO (Polygonum convolvulus [10]; Table F, 20 g/ha): 0%
- Herbicidal efficacy against ECHCG (Echinochloa crus galli [13]; Table F): 20%
- Damage to crop plants ORYSA (Oryza sativa (rice) [14]; Table F): 50%
- Damage to crop plants BRSNW ([12]; Table F, 20 g/ha): 30%

SMILES: Cn1nnnc1NC(=O)c1ccc(C(F)(F)F)cc1S(C)(=O)=O
- Herbicidal efficacy against POLCO (Polygonum convolvulus [2]; Table J, 80 g/ha): 70%
- Damage to crop plants TRZAS ([4]; Table J, 80 g/ha): 60%

SMILES: Cc1c(C(=O)Nc2nnnn2C)ccc(C(F)(F)F)c1S(C)(=O)=O [drawing 29]
- Herbicidal efficacy against LOLMU (Lolium multiflorum; Table K): 70%
- Herbicidal efficacy against AVEFA (Avena fatua [6]): 70%
- Damage to crop plants ZEAMX (Zea mays (corn) [5]; Table K): 70%

SMILES: Cc1nc(C(F)(F)F)ccc1C(=O)Nc1nnnn1C
- Herbicidal efficacy against PHBPU (Pharbitis purpureum [9]; Table D, 320 g/ha): 60%
- Herbicidal efficacy against POLCO (Polygonum convolvulus [10]; Table D, 320 g/ha): 60%
- Damage to crop plants TRZAS [11]: 20%

SMILES: Cc1c(C(=S)Nc2nnnn2C)ccc(C(F)(F)F)c1S(C)(=O)=O [drawing 18]
- Herbicidal efficacy against POLCO (Polygonum convolvulus [10]; Table F, 20 g/ha): 60%
- Herbicidal efficacy against ECHCG (Echinochloa crus galli [13]; Table F): 100%
- Damage to crop plants ORYSA (Oryza sativa (rice) [14]; Table F): 20%
- Damage to crop plants BRSNW ([12]; Table F, 20 g/ha): 0%

SMILES: Cc1c(C(=S)Nc2ncnn2C)ccc(S(C)(=O)=O)c1S(C)(=O)=O
- Herbicidal efficacy against AMARE (Amaranthus retroflexus [15]): 90%
- Herbicidal efficacy against ABUTH (Abutilon theophrasti; Table E, 320 g/ha): 80%
- Damage to crop plants BRSNW ([12]; Table E, 320 g/ha): 0%

SMILES: Cn1nnnc1NC(=S)c1ccc(C(F)(F)F)cc1S(C)(=O)=O
- Herbicidal efficacy against POLCO (Polygonum convolvulus [2]; Table J, 80 g/ha): 90%
- Damage to crop plants TRZAS ([4]; Table J, 80 g/ha): 20%

SMILES: Cn1nnnc1NC(=O)c1ccc(S(C)(=O)=O)c(COCC(F)(F)F)c1Cl
- Herbicidal efficacy against POLCO (Polygonum convolvulus [10]; Table C, 320 g/ha): 50%
- Herbicidal efficacy against AVEFA (Avena fatua [16]): 70%
- Damage to crop plants ZEAMX (Zea mays (corn) [17]): 20%

SMILES: CCCn1nnnc1NC(=S)c1ccc(C(F)(F)F)c(S(C)(=O)=O)c1C [drawing 10]
- Herbicidal efficacy against ECHCG (Echinochloa crus galli [13]; Table B): 20%
- Herbicidal efficacy against CYPES (Cyperus serotinus): 100%
- Damage to crop plants ORYSA (Oryza sativa (rice) [14]; Table B): 0%

SMILES: Cn1nnnc1NC(=S)c1ccc(S(C)(=O)=O)c(COCC(F)(F)F)c1Cl
- Herbicidal efficacy against POLCO (Polygonum convolvulus [10]; Table C, 320 g/ha): 90%
- Herbicidal efficacy against AVEFA (Avena fatua [16]): 90%
- Damage to crop plants ZEAMX (Zea mays (corn) [17]): 0%

SMILES: Cc1c(C(=S)Nc2nnnn2C)ccc(S(C)(=O)=O)c1Cl [drawing 22]
- Herbicidal efficacy against ECHCG (Echinochloa crus galli [7]): 70%
- Herbicidal efficacy against AMARE (Amaranthus retroflexus [8]): 40%
- Herbicidal efficacy against SETVI (Setaria viridis): 40%

SMILES: CCCn1nnnc1NC(=S)c1ccc(C(F)(F)F)c(S(C)(=O)=O)c1C [drawing 24]
- Herbicidal efficacy against LOLMU (Lolium multiflorum; Table I): 20%
- Herbicidal efficacy against ALOMY (Alopecurus myosuroides): 80%
- Damage to crop plants ZEAMX (Zea mays (corn) [5]; Table I): 0%

SMILES: CCCn1nnnc1NC(=O)c1ccc(C(F)(F)F)c(S(C)(=O)=O)c1C [drawing 11]
- Herbicidal efficacy against ECHCG (Echinochloa crus galli [13]; Table B): 0%
- Herbicidal efficacy against CYPES (Cyperus serotinus): 0%
- Damage to crop plants ORYSA (Oryza sativa (rice) [14]; Table B): 50%

SMILES: Cc1c(C(=O)Nc2ncnn2C)ccc(S(C)(=O)=O)c1S(C)(=O)=O
- Herbicidal efficacy against AMARE (Amaranthus retroflexus [15]): 40%
- Herbicidal efficacy against ABUTH (Abutilon theophrasti; Table E, 320 g/ha): 0%
- Damage to crop plants BRSNW ([12]; Table E, 320 g/ha): 20%

SMILES: Cc1c(C(=O)Nc2nnnn2C)ccc(S(C)(=O)=O)c1Cl [drawing 9]
- Herbicidal efficacy against PHBPU (Pharbitis purpureum [9]; Table A, 20 g/ha): 0%
- Herbicidal efficacy against ABUTH (Abutilon theophrasti; Table A, 20 g/ha): 70%
- Damage to crop plants BRSNW ([12]; Table A, 20 g/ha): 20%
